Measurements reported in ChEMBL document CHEMBL1154433, “Synthesis of new substituted azetidinoyl and thiazolidinoyl-1,3,4-thiadiazino (6,5-b) indoles as promising anti-inflammatory agents” (Eur J Med Chem, 2008).

Assays:
Mus musculus [1] = assay: Analgesic activity in mouse assessed as protection against phenylquinone-induced writhing at 50 mg/kg, po administered 1 hr before phenylquinone challenge measured for 5 mins relative to control; type: functional
[2] = target: Prostaglandin G/H synthase 1 (Homo sapiens) (UniProt P23219); assay: Inhibition of COX1; set-up: concentration or dose not given beside the values; details: concentration not given here
Sequence of Prostaglandin G/H synthase 1 (Homo sapiens) (P23219 whole entry): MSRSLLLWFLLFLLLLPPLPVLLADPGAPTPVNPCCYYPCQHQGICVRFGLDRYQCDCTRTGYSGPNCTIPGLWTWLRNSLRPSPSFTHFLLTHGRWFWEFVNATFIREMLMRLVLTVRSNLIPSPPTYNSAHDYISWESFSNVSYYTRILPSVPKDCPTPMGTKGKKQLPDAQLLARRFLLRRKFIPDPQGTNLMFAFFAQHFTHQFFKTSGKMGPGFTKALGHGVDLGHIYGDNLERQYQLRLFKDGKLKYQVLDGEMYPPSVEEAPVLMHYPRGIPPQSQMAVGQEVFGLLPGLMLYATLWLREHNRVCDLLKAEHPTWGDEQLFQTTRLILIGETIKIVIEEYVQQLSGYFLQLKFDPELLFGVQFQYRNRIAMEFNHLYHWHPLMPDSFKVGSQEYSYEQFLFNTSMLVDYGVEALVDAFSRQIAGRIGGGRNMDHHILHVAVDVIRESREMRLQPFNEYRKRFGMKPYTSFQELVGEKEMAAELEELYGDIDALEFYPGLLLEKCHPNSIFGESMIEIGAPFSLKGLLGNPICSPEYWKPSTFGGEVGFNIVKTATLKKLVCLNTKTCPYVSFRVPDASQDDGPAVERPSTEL

[3] = target: T1, Prostaglandin G/H synthase 2 (Homo sapiens) (UniProt P35354); assay: Inhibition of COX2; set-up: concentration or dose not given beside the values; details: concentration not given here
T1 sequence (whole entry): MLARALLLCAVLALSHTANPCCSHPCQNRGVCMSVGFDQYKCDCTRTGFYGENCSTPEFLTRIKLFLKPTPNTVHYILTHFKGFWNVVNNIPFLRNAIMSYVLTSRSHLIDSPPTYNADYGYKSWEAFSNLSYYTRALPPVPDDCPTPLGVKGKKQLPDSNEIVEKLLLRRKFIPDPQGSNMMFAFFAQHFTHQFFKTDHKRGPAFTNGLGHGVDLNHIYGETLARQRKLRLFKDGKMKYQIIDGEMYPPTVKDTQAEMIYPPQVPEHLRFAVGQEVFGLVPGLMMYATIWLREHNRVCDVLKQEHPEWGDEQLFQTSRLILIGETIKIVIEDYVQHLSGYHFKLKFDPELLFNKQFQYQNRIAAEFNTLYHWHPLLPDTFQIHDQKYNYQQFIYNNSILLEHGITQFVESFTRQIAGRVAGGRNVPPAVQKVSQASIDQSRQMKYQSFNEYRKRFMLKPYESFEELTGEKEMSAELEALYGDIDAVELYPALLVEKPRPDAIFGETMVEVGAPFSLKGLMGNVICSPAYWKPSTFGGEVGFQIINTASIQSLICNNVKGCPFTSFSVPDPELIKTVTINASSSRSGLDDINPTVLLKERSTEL

Rattus norvegicus [4] = assay: Antiinflammatory activity in albino Charles-Foster rat assessed as inhibition of carrageenan-induced paw oedema at 50 mg/kg, po measured before 1 hr and after 3 hrs of carrageenan challenge relative to control; type: functional
[5] = Acute toxicity in orally dosed albino mouse after 24 hrs; type: organism-based, albino Charles-Foster; details: in vivo, po, read-out: ALD50
Rattus norvegicus [6] = assay: Antiinflammatory activity in albino Charles-Foster rat assessed as inhibition of carrageenan-induced paw oedema at 100 mg/kg, po measured before 1 hr and after 3 hrs of carrageenan challenge relative to control; type: functional
Mus musculus [7] = assay: Analgesic activity in mouse assessed as protection against phenylquinone-induced writhing at 25 mg/kg, po administered 1 hr before phenylquinone challenge measured for 5 mins relative to control; type: functional
[8] = Toxicity in 24 hrs fasted Albino rat assessed as ulcerogenic activity after 8 hrs; type: organism-based; details: in vivo, read-out: UD50
Mus musculus [9] = assay: Analgesic activity in mouse assessed as protection against phenylquinone-induced writhing at 100 mg/kg, po administered 1 hr before phenylquinone challenge measured for 5 mins relative to control; type: functional
Rattus norvegicus [10] = assay: Antiinflammatory activity in albino Charles-Foster rat assessed as inhibition of carrageenan-induced paw oedema at 25 mg/kg, po measured before 1 hr and after 3 hrs of carrageenan challenge relative to control; type: functional

Compound | Activity (Mus musculus [1]) | inhibition [2] | inhibition [3] | inhibition in vivo at 50 mg/kg (Rattus norvegicus [4]) | LD50 at 24 h [5] | inhibition in vivo at 100 mg/kg (Rattus norvegicus [6]) | Activity (Mus musculus [7]) | TD50 at 8 h [8] | Activity (Mus musculus [9]) | inhibition in vivo at 25 mg/kg (Rattus norvegicus [10])
Cc1ccc(C2SCC(=O)N2c2nnc(CNc3nnc4c5ccccc5nc-4s3)s2)cc1 (stereo not drawn) | 22.08% | 33.4% | 36.3% | 37% | > 800 mg/kg |  |  |  |  | 
CCCCC1C(=O)N(c2ccccc2)N(c2ccccc2)C1=O [PHENYLBUTAZONE] | 32.5% |  |  | 36.8% | > 800 mg/kg | 64.7% | 14.26% | 54.6 mg/kg | 32.5% | 26.8%
COc1ccccc1C1SCC(=O)N1c1nnc(CNc2nnc3c4ccccc4nc-3s2)s1 (stereo not drawn) | 22.56% | 33.3% | 38.5% | 31.3% | > 800 mg/kg |  |  |  |  | 
O=C1C(Cl)C(c2ccc(O)cc2)N1c1nnc(CNc2nnc3c4ccccc4nc-3s2)s1 (stereo not drawn) | 19.95% | 39.3% | 71.1% | 32.7% | > 800 mg/kg |  |  |  |  | 
O=C1C(Cl)C(c2ccccc2Cl)N1c1nnc(CNc2nnc3c4ccccc4nc-3s2)s1 (stereo not drawn) | 38% | 69.1% | 93.3% | 28.8% | > 800 mg/kg | 66.8% | 19% | 133 mg/kg | 58% | 28.8%
C(=N\c1nnc(CNc2nnc3c4ccccc4nc-3s2)s1)/c1ccccc1 | 12.16% | 22.4% | 24.2% | 14.8% | > 800 mg/kg |  |  |  |  | 
Cc1ccc(/C=N/c2nnc(CNc3nnc4c5ccccc5nc-4s3)s2)cc1 | 12.67% | 23.1% | 25.4% | 20.7% | > 800 mg/kg |  |  |  |  | 
COc1ccc(C2C(Cl)C(=O)N2c2nnc(CNc3nnc4c5ccccc5nc-4s3)s2)cc1 (stereo not drawn) | 21.27% | 39.5% | 66.3% | 31.6% | > 800 mg/kg |  |  |  |  | 
O=C1C(Cl)C(c2ccccc2)N1c1nnc(CNc2nnc3c4ccccc4nc-3s2)s1 (stereo not drawn) | 21% | 37% | 74.6% | 30.6% | > 800 mg/kg |  |  |  |  | 
Clc1ccc(/C=N/c2nnc(CNc3nnc4c5ccccc5nc-4s3)s2)cc1 | 16.5% | 27.4% | 33.7% | 26% | > 800 mg/kg |  |  |  |  | 
O=C1C(Cl)C(c2ccc(Cl)cc2)N1c1nnc(CNc2nnc3c4ccccc4nc-3s2)s1 (stereo not drawn) | 25.01% | 40.9% | 72.1% | 34.7% | > 800 mg/kg |  |  |  |  | 
COc1ccc(/C=N/c2nnc(CNc3nnc4c5ccccc5nc-4s3)s2)cc1 | 15.67% | 26.2% | 29.4% | 22.4% | > 800 mg/kg |  |  |  |  | 
Clc1ccccc1/C=N/c1nnc(CNc2nnc3c4ccccc4nc-3s2)s1 | 18.66% | 28.7% | 34.4% | 26% | > 800 mg/kg |  |  |  |  | 
Cc1ccc(C2C(Cl)C(=O)N2c2nnc(CNc3nnc4c5ccccc5nc-4s3)s2)cc1 (stereo not drawn) | 18.76% | 38.4% | 63.6% | 32.2% | > 800 mg/kg |  |  |  |  | 
CN(C)c1ccc(C2C(Cl)C(=O)N2c2nnc(CNc3nnc4c5ccccc5nc-4s3)s2)cc1 (stereo not drawn) | 22.67% | 37.2% | 65.8% | 33.6% | > 800 mg/kg |  |  |  |  | 
Oc1ccc(/C=N/c2nnc(CNc3nnc4c5ccccc5nc-4s3)s2)cc1 | 16.87% | 25.1% | 31.5% | 24.3% | > 800 mg/kg |  |  |  |  | 
CN(C)c1ccc(/C=N/c2nnc(CNc3nnc4c5ccccc5nc-4s3)s2)cc1 | 14.28% | 24.2% | 26.4% | 21.4% | > 800 mg/kg |  |  |  |  | 
O=C1CSC(c2ccc(O)cc2)N1c1nnc(CNc2nnc3c4ccccc4nc-3s2)s1 (stereo not drawn) | 9.95% | 34.4% | 44% | 25.3% | > 800 mg/kg |  |  |  |  | 
O=C1CSC(c2ccccc2)N1c1nnc(CNc2nnc3c4ccccc4nc-3s2)s1 (stereo not drawn) | 9.7% | 31.9% | 36.7% | 19.8% | > 800 mg/kg |  |  |  |  | 
O=C1CSC(c2ccc(Cl)cc2)N1c1nnc(CNc2nnc3c4ccccc4nc-3s2)s1 (stereo not drawn) | 8.78% | 36.5% | 44.1% | 18.2% | > 800 mg/kg |  |  |  |  | 
COc1ccc(C2SCC(=O)N2c2nnc(CNc3nnc4c5ccccc5nc-4s3)s2)cc1 (stereo not drawn) | 10.76% | 34.3% | 40.1% | 28.1% | > 800 mg/kg |  |  |  |  | 
CN(C)c1ccc(C2SCC(=O)N2c2nnc(CNc3nnc4c5ccccc5nc-4s3)s2)cc1 (stereo not drawn) | 18% | 32.2% | 38.1% | 28.7% | > 800 mg/kg |  |  |  |  | 
O=C1CSC(c2ccccc2Cl)N1c1nnc(CNc2nnc3c4ccccc4nc-3s2)s1 (stereo not drawn) | 24.67% | 43.1% | 45.4% | 38.5% | > 800 mg/kg | 44.5% | 12.32% | 167 mg/kg | 36.36% | 22.4%
COc1ccccc1C1C(Cl)C(=O)N1c1nnc(CNc2nnc3c4ccccc4nc-3s2)s1 (stereo not drawn) | 35% | 38.7% | 64.3% | 36.2% | > 800 mg/kg |  |  |  |  | 
COc1ccccc1/C=N/c1nnc(CNc2nnc3c4ccccc4nc-3s2)s1 | 22.23% | 24.1% | 26.7% | 23.2% | > 800 mg/kg |  |  |  |  | 
